Reference: ChEMBL document CHEMBL1201862, “PubChem BioAssay data set” (2004)
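Method: 48-hour compound exposure of cells in 96-well plates, five concentrations, linear interpolation of endpoints. Here, GI50 denotes the concentration required for 50% inhibition of growth.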 Activity calls are given as the source filed them. Cut-off read from the data, not from the text of the source: active = GI50 up to about 1.1 µM and inactive = higher.

Assays:
Test in all cases: NCI-60 cell line screen, 48 h
SF-539 = tested on: SF-539
IGROV-1 = tested on: IGROV-1
SR = tested on: SR
NCI-H226 = tested on: NCI-H226
OVCAR-3 = tested on: OVCAR-3
PC-3 = tested on: PC-3
SK-MEL-28 = tested on: SK-MEL-28
SK-MEL-5 = tested on: SK-MEL-5
EKVX = tested on: EKVX
OVCAR-4 = tested on: OVCAR-4
HCC 2998 = tested on: HCC 2998
U-251 = tested on: U-251
ACHN = tested on: ACHN
NCI/ADR-RES = tested on: NCI/ADR-RES
RPMI-8226 = tested on: RPMI-8226
DU-145 = tested on: DU-145
HT-29 = tested on: HT-29
MDA-MB-435 = tested on: MDA-MB-435
CCRF-CEM = tested on: CCRF-CEM
MDA-N = tested on: MDA-N

Row | SMILES | GI50 (SF-539) | GI50 (IGROV-1) | GI50 (SR) | GI50 (NCI-H226) | GI50 (OVCAR-3) | GI50 (PC-3) | GI50 (SK-MEL-28) | GI50 (SK-MEL-5) | GI50 (EKVX) | GI50 (OVCAR-4) | GI50 (HCC 2998) | GI50 (U-251) | GI50 (ACHN) | GI50 (NCI/ADR-RES) | GI50 (RPMI-8226) | GI50 (DU-145) | GI50 (HT-29) | GI50 (MDA-MB-435) | GI50 (CCRF-CEM) | GI50 (MDA-N)
1 | O=C(NCCO)c1c(O)c2ccccc2[nH]c1=O | > 100 µM (inactive) | > 100 µM (inactive) | > 100 µM (inactive) | > 100 µM (inactive) | > 100 µM (inactive) | > 100 µM (inactive) | > 100 µM (inactive) | > 100 µM (inactive) | 69.5 µM (inactive) | > 100 µM (inactive) | > 100 µM (inactive) | > 100 µM (inactive) | > 100 µM (inactive) | > 100 µM (inactive) | > 100 µM (inactive) | > 100 µM (inactive) | > 100 µM (inactive) | > 100 µM (inactive) | > 100 µM (inactive) | > 100 µM (inactive)
2 | C=C1CCCCCCCCCCC1[S+]([O-])c1ccccc1 (centres undefined) | 21 µM (inactive) | 16 µM (inactive) | 25.2 µM (inactive) | 44.7 µM (inactive) | 34.1 µM (inactive) | 31.5 µM (inactive) | 50.2 µM (inactive) | 29.5 µM (inactive) | > 100 µM (inactive) | 54.5 µM (inactive) | > 100 µM (inactive) | 21 µM (inactive) | 29.8 µM (inactive) | 34.4 µM (inactive) | 20.8 µM (inactive) | 49.1 µM (inactive) | 40.3 µM (inactive) | 23.9 µM (inactive) | – | 34 µM (inactive)
3 | CC(=O)O[C@H]1[C@H](OC(C)=O)[C@@H](CN=[N+]=[N-])OCO[C@@H]1CN=[N+]=[N-] | > 100 µM (inactive) | > 100 µM (inactive) | > 100 µM (inactive) | > 100 µM (inactive) | – | > 100 µM (inactive) | > 100 µM (inactive) | > 100 µM (inactive) | > 100 µM (inactive) | > 100 µM (inactive) | > 100 µM (inactive) | > 100 µM (inactive) | > 100 µM (inactive) | > 100 µM (inactive) | > 100 µM (inactive) | > 100 µM (inactive) | > 100 µM (inactive) | > 100 µM (inactive) | > 100 µM (inactive) | > 100 µM (inactive)
4 | CCOC(=O)C(C)(C(=O)OCC)/C(Cl)=C\Cl | > 100 µM (inactive) | > 100 µM (inactive) | > 100 µM (inactive) | > 100 µM (inactive) | > 100 µM (inactive) | > 100 µM (inactive) | > 100 µM (inactive) | > 100 µM (inactive) | > 100 µM (inactive) | > 100 µM (inactive) | 0.0434 µM (active) | – | > 100 µM (inactive) | > 100 µM (inactive) | > 100 µM (inactive) | > 100 µM (inactive) | > 100 µM (inactive) | > 100 µM (inactive) | > 100 µM (inactive) | > 100 µM (inactive)
5 | CN/C(=N\N)NS(=O)(=O)c1cc(C)c(Cl)cc1S | > 100 µM (inactive) | 86.3 µM (inactive) | 44 µM (inactive) | > 100 µM (inactive) | 57.5 µM (inactive) | > 100 µM (inactive) | > 100 µM (inactive) | 30.7 µM (inactive) | 81.7 µM (inactive) | > 100 µM (inactive) | 87.7 µM (inactive) | 64.1 µM (inactive) | – | > 100 µM (inactive) | 74 µM (inactive) | > 100 µM (inactive) | 40.4 µM (inactive) | 43.5 µM (inactive) | 43.6 µM (inactive) | > 100 µM (inactive)
6 | SC1CCCN(Cc2ccccc2)C1 (centres undefined) | > 100 µM (inactive) | 59.8 µM (inactive) | 27.9 µM (inactive) | > 100 µM (inactive) | > 100 µM (inactive) | 57.5 µM (inactive) | 41.9 µM (inactive) | 18.5 µM (inactive) | > 100 µM (inactive) | 56.9 µM (inactive) | 16.2 µM (inactive) | 33.4 µM (inactive) | 74.8 µM (inactive) | > 100 µM (inactive) | 21.3 µM (inactive) | > 100 µM (inactive) | 21 µM (inactive) | 31.6 µM (inactive) | – | 59 µM (inactive)
7 | Cc1cc(S(=O)(=O)NC2=Nc3cccc4cccc(c34)N2)c(S)cc1Cl | > 100 µM (inactive) | 63.5 µM (inactive) | 60 µM (inactive) | > 100 µM (inactive) | 53.7 µM (inactive) | 65.3 µM (inactive) | > 100 µM (inactive) | 60.5 µM (inactive) | > 100 µM (inactive) | 85.9 µM (inactive) | > 100 µM (inactive) | 50 µM (inactive) | > 100 µM (inactive) | > 100 µM (inactive) | > 100 µM (inactive) | > 100 µM (inactive) | – | 83.4 µM (inactive) | 44.5 µM (inactive) | 0.316 µM (active)
